# Assay results reported in patent publication US20030119066A1, “Diagnostic kit for detecting immunogenic response and method of screening” (Novozymes A/S, priority 2001, published 2003).
# Tests used:
# specific antibodies = test: Phage display library screening for clones binding specific antibodies; settings: random hexa-, nona- or dodeca peptide phage display library
# Source text: In a particular method, the identification of antibody binding sequences may be achieved by screening a display package library, particularly a phage display library. The principle behind phage display is that a heterologous DNA sequence can be inserted in the gene coding for a coat protein of the phage (WO 92/15679). The phage will make and display the hybrid protein on its surface where it can interact with specific target agents. Such target agent may be antigen-specific antibodies. It is therefore possible to select specific phages that display antibody-binding peptide sequences. […] Thus, by screening for antibody binding, one can isolate the peptide sequences that have sufficiently high affinity for the particular antibody used. The peptides of the hybrid proteins of the specific phages which bind protein-specific antibodies characterize epitopes that are recognized by the immune system.
# From a phage display library expressing random hexa-, nona- or dodeca peptides as part of their membrane proteins, specific phage clones were isolated capable of binding specific antibodies. […] The amino acid sequence of the corresponding oligopeptide was deduced from the DNA sequence.
# anti-Savinase® antibody = test: ELISA of antibody binding capacity of immobilized peptides with sera raised against different proteins; parameters: species or system rabbits, rats, and mice; settings: biotin-linked peptide on streptavidin plates, sera raised against Alcalase, Subtilisin Novo, Carezyme, Laccase, Natalase, SP722, Lipolase (FIG. 1)
# Procedure: The antibody binding capacity of the two linear peptide sequences, RRFANDHTR (light gray bars) and RRFSNATRA (dark gray bars), were tested in an ELISA assay, by measuring optical density, OD. The sequences were tested for binding to antibodies in sera raised against different proteins. The different proteins are marked by capital letters A through H. A=Alcalase®, B=Savinase®, C=Subtilisin Novo®), D=Carezyme®) (cellulase), E=Laccase, F=Natalase® (amylase), G=SP722 (amylase), H=Lipolase® (lipase).
# Specific IgG and IgE levels were determined using the ELISA specific for human, mouse or rat IgG or IgE. Differences between data sets were analysed by using appropriate statistical methods. The assays were performed as known to the expert.
# The following sequences were synthezised, and immobilized on biotin, through a linker molecule:
# The biotin-complex was immobilized in ELISA well plates, pre-coated with streptavidin. If phages were used, these were directly coated into the ELISA plate wells. ELISA was performed as described elsewhere, on sera from rabbits, rats, and mice raised against Alcalase®, Savinase®, and Subtilisin Novo® as well as a number of less relevant proteins.
# In FIG. 1 the reactivity of the selected peptides in terms of antibody binding capacity is shown (ELISA assay). […]
Substance,antibody binding of phage-displayed peptide (specific antibodies),"reactivity (antibody binding capacity, optical density, OD) (anti-Savinase® antibody)"
VQVYGDTSA,specific antibody binding peptide,
R R F S N A T R A (RRFSNATRA),,Reactivity was observed with anti-Savinase® antibody only
R R F A N D H T R (RRFANDHTR),,Reactivity was observed with anti-Savinase® antibody only
